From ChEMBL document CHEMBL1127066, “Discovery and structure-activity relationship of a series of 1-carba-1-dethiacephems exhibiting activity against methicillin-resistant Staphylococcus aureus” (J Med Chem, 1993)

Experiments:
Assay type in all cases: functional
[1] = system: Pseudomonas aeruginosa; assay: In vitro antimicrobial activity against Pseudomonas X239 strain
[2] = system: Escherichia coli; assay: In vitro evaluation of antimicrobial activity against Escherichia coli EC14 strain
[3] = system: Pseudomonas aeruginosa; assay: Antimicrobial activity against Pseudomonas PS18 strain
[4] = system: Haemophilus influenzae; assay: In vitro antimicrobial activity against Haemophilus influenzae C.L. strain
[5] = system: Staphylococcus epidermidis; assay: In vitro antimicrobial activity against Staphylococcus epidermidis 270 strain
[6] = system: Klebsiella; assay: In vitro antimicrobial activity against Klebsiella X26 strain
[7] = system: Staphylococcus aureus; assay: In vitro antimicrobial activity against Staphylococcus aureus S13E strain
[8] = system: Staphylococcus aureus; assay: In vitro antimicrobial activity against Staphylococcus aureus X400 strain
[9] = system: Streptococcus pneumoniae; assay: In vitro antimicrobial activity against Streptococcus pneumoniae PARK strain
[10] = system: Staphylococcus aureus; assay: In vitro antimicrobial activity against Staphylococcus aureus X1.1 strain
[11] = system: Staphylococcus epidermidis; assay: In vitro antimicrobial activity against Staphylococcus epidermidis 222 strain
[12] = system: Enterobacter cloacae; assay: In vitro evaluation of antimicrobial activity against Enterobacter cloacae EB5 strain

SMILES	MIC [1] [µg/mL]	MIC [2] [µg/mL]	MIC [3] [µg/mL]	MIC [4] [µg/mL]	MIC [5] [µg/mL]	MIC [6] [µg/mL]	MIC [7] [µg/mL]	MIC [8] [µg/mL]	MIC [9] [µg/mL]	MIC [10] [µg/mL]	MIC [11] [µg/mL]	MIC [12] [µg/mL]
Nc1nc(/C(=N\OCCF)C(=O)N[C@@H]2C(=O)N3C(C(=O)[O-])=C(Sc4nc5cncnc5s4)CC[C@H]23)cs1.[Na+]	128	0.25	128	0.03	2	0.03	8	16	< 0.008	0.125	0.5	2
Cc1nc(SC2=C(C(=O)[O-])N3C(=O)[C@@H](NC(=O)/C(=N/OCCF)c4csc(N)n4)[C@H]3CC2)sc1C.[Na+]	8	0.5	64	0.015	2	0.06	4	32	< 0.008	0.5	1	4
Nc1nc(/C(=N\OCCF)C(=O)N[C@@H]2C(=O)N3C(C(=O)[O-])=C(Sc4ccncc4)CC[C@H]23)cs1.[Na+]	16	0.06	64	0.015	2	0.015	32	64	< 0.008	0.5	1	0.5
Nc1nc(/C(=N\OCCF)C(=O)N[C@@H]2C(=O)N3C(C(=O)[O-])=C(Sc4snc5ccccc45)CC[C@H]23)cs1.[Na+]	32	0.25	16	0.03	2	0.03	32	64	< 0.008	0.125	0.5	0.5
Nc1nc(/C(=N\OCCF)C(=O)N[C@@H]2C(=O)N3C(C(=O)[O-])=C(Sc4nc(-c5ccccn5)cs4)CC[C@H]23)cs1.[Na+]	32	0.5	64	0.03	2	0.03	16	32	< 0.008	0.25	0.5	2
Cc1csc(SC2=C(C(=O)[O-])N3C(=O)[C@@H](NC(=O)/C(=N/OCCF)c4csc(N)n4)[C@H]3CC2)n1.[Na+]	64	0.25	32	< 0.008	4	< 0.008	4	64	< 0.008	0.5	0.5	2
Nc1nc(/C(=N\OCCF)C(=O)N[C@@H]2C(=O)N3C(C(=O)[O-])=C(Sc4nc5ccccc5o4)CC[C@H]23)cs1.[Na+]	32	0.25	32	0.03	2	0.015	2	64	< 0.008	0.125	1	1
Nc1nc(/C(=N\OCCF)C(=O)N[C@@H]2C(=O)N3C(C(=O)[O-])=C(Sc4nc5c(N)ncnc5s4)CC[C@H]23)cs1.[Na+]	> 128	0.25	64	0.03	2	0.03	16	32	< 0.008	0.125	0.5	1
CC(=O)c1sc(SC2=C(C(=O)[O-])N3C(=O)[C@@H](NC(=O)/C(=N/OCCF)c4csc(N)n4)[C@H]3CC2)nc1C.[Na+]	> 128	1	> 128	0.06	8	0.125	32	128	< 0.008	0.5	2	8
Nc1nc(/C(=N\OCCF)C(=O)N[C@@H]2C(=O)N3C(C(=O)[O-])=C(Sc4nc5ccccc5[nH]4)CC[C@H]23)cs1.[Na+]	32	0.125	32	0.015	8	0.015	16	128	< 0.008	2	2	1
Nc1nc(/C(=N\OCCF)C(=O)N[C@@H]2C(=O)N3C(C(=O)[O-])=C(Sc4nc(C(=O)O)cs4)CC[C@H]23)cs1.[Na+]	> 128	0.25	128	0.015	8	0.25		> 128	0.015	2	4	4
Nc1nc(/C(=N\OCCF)C(=O)N[C@@H]2C(=O)N3C(C(=O)[O-])=C(Sc4nccs4)CC[C@H]23)cs1.[Na+]	128	0.125	32	< 0.008	4	< 0.008	16	64	< 0.008	0.25	0.5	1
